Assay results as given in US8952024B2, “Herbicidal pyrimidone derivatives” (E I du Pont de Nemours and Company, priority 2009, dated 2015).

Key:
Assay in all cases: Test B pre-/postemergence plant response
Type in all cases: in vivo
[1] = system: Italian ryegrass (Lolium multiflorum)
Summary of the method: (§1)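 Visual injury, 0–100 scale (100 = complete control), rated against controls after 13 to 15 days in greenhouse. Pre-emergence: seeds in loam/sand soil, treated at planting. Post-emergence: 1- to 4-leaf plants (2 to 18 cm) in peat/vermiculite medium. Compounds formulated in non-phytotoxic solvent with surfactant.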

[2] = system: yellow nutsedge (Cyperus esculentus)
Summary of the method: as §1

[3] = system: blackgrass (Alopecurus myosuroides)
Summary of the method: as §1

[4] = system: giant foxtail (Setaria faberii)
Summary of the method: as §1

[5] = system: bermudagrass (Cynodon dactylon)
Summary of the method: as §1

[6] = system: green foxtail (Setaria viridis)
Summary of the method: as §1

[7] = system: Surinam grass (Brachiaria decumbens)
Summary of the method: as §1

[8] = system: large crabgrass (Digitaria sanguinalis)
Summary of the method: as §1

[9] = system: downy bromegrass (Bromus tectorum)
Summary of the method: as §1

[10] = system: lambsquarters (Chenopodium album)
Summary of the method: as §1

[11] = system: woolly cupgrass (Eriochloa villosa)
Summary of the method: as §1

[12] = system: morningglory (Ipomoea coccinea)
Summary of the method: as §1

corn (Zea mays) = system: corn (Zea mays)
Summary of the method: as §1

[13] = 250 g ai/ha, Preemergence, 0 to 100 scale
[14] = Postemergence, 31 g ai/ha, scale 0 to 100 (0 no effect, 100 complete control)
[15] = Postemergence, 62 g ai/ha, scale 0 (no effect) to 100 (complete control), 13 to 15 days
[16] = Postemergence, 125 g ai/ha, visual rating after 13 to 15 days, scale 0 (no effect) to 100 (complete control)
[17] = Postemergence, 250 g ai/ha, scale 0 to 100
[18] = Preemergence, 31 g ai/ha, scale 0 to 100 (0 no effect, 100 complete control)
[19] = Preemergence, 62 g ai/ha, scale 0 to 100 (0 no effect, 100 complete control)
[20] = Preemergence, 125 g ai/ha, 0 to 100 scale

`O=C1CCCC(O)=C1C(=O)c1cnc(-c2ccccc2)n(-c2ccccc2F)c1=O` [Compound 26] was tested, and the “Plant response rating, Ryegrass, Italian” value [1, 13] was 0, the “Plant response rating, Ryegrass, Italian” value [1, 14] was 0 and the “Plant response rating, Ryegrass, Italian” value [1, 15] was 0. For the same compound, the “Plant response rating, Ryegrass, Italian” value [1, 16] was 10, the “Ryegrass, Italian plant response rating” value [1, 17] was 45 and the “Plant response rating, Ryegrass, Italian” value [1, 18] was 0. The “Plant response rating, Ryegrass, Italian” value [1, 19] was 0, the “Ryegrass, Italian plant response rating” value [1, 20] was 0 and the “Plant response rating, Nutsedge, Yellow” value [2, 13] was 85. The “Plant response rating, Nutsedge, Yellow” value [2, 14] was 30, the “Plant response rating, Nutsedge, Yellow” value [2, 15] was 30 and the “Plant response rating, Nutsedge, Yellow” value [2, 16] was 35. For the same compound, the “Nutsedge, Yellow plant response rating” value [2, 17] was 35, the “Plant response rating, Nutsedge, Yellow” value [2, 18] was 10 and the “Plant response rating, Nutsedge, Yellow” value [2, 19] was 50. The “Nutsedge, Yellow plant response rating” value [2, 20] was 50, the “Plant response rating, Blackgrass” value [3, 13] was 10 and the “Plant response rating, Blackgrass” value [3, 14] was 0. The “Plant response rating, Blackgrass” value [3, 15] was 0, the “Plant response rating, Blackgrass” value [3, 16] was 10 and the “Blackgrass plant response rating” value [3, 17] was 40. The “Plant response rating, Blackgrass” value [3, 18] was 0, the “Plant response rating, Blackgrass” value [3, 19] was 0 and the “Blackgrass plant response rating” value [3, 20] was 0. For the same compound, the “Plant response rating, Foxtail, Giant” value [4, 13] was 90, the “Plant response rating, Foxtail, Giant” value [4, 14] was 60 and the “Plant response rating, Foxtail, Giant” value [4, 15] was 60. For the same compound, the “Plant response rating, Foxtail, Giant” value [4, 16] was 70, the “Foxtail, Giant plant response rating” value [4, 17] was 95 and the “Plant response rating, Foxtail, Giant” value [4, 18] was 5. The “Plant response rating, Foxtail, Giant” value [4, 19] was 10, the “Foxtail, Giant plant response rating” value [4, 20] was 45 and the “Plant response rating, Bermudagrass” value [5, 13] was 100. For the same compound, the “Plant response rating, Bermudagrass” value [5, 14] was 40, the “Plant response rating, Bermudagrass” value [5, 15] was 50 and the “Plant response rating, Bermudagrass” value ([5]; Postemergence, 125 g ai/ha, scale 0 to 100 (0 no effect, 100 complete control), 13 to 15 days) was 60. The “Bermudagrass plant response rating” value [5, 17] was 75, the “Plant response rating, Bermudagrass” value [5, 18] was 5 and the “Plant response rating, Bermudagrass” value [5, 19] was 70. For the same compound, the “Bermudagrass plant response rating” value [5, 20] was 98, the “Plant response rating, Foxtail, Green” value [6, 13] was 70 and the “Plant response rating, Foxtail, Green” value [6, 14] was 35. For the same compound, the “Plant response rating, Foxtail, Green” value [6, 15] was 40, the “Plant response rating, Foxtail, Green” value [6, 16] was 85 and the “Foxtail, Green plant response rating” value [6, 17] was 95. For the same compound, the “Plant response rating, Foxtail, Green” value [6, 18] was 0, the “Plant response rating, Foxtail, Green” value [6, 19] was 0 and the “Foxtail, Green plant response rating” value [6, 20] was 30. The “Plant response rating, Surinam Grass” value [7, 13] was 90, the “Plant response rating, Surinam Grass” value [7, 14] was 30 and the “Plant response rating, Surinam Grass” value [7, 15] was 40. The “Plant response rating, Surinam Grass” value [7, 16] was 60, the “Surinam Grass plant response rating” value [7, 17] was 60 and the “Plant response rating, Surinam Grass” value [7, 18] was 0. The “Plant response rating, Surinam Grass” value [7, 19] was 5, the “Surinam Grass plant response rating” value [7, 20] was 90 and the “Plant response rating, Crabgrass, Large” value [8, 13] was 100. The “Plant response rating, Crabgrass, Large” value [8, 14] was 40, the “Plant response rating, Crabgrass, Large” value [8, 15] was 50 and the “Plant response rating, Crabgrass, Large” value [8, 16] was 50. The “Crabgrass, Large plant response rating” value [8, 17] was 80, the “Plant response rating, Crabgrass, Large” value [8, 18] was 0 and the “Plant response rating, Crabgrass, Large” value [8, 19] was 40. The “Crabgrass, Large plant response rating” value [8, 20] was 100, the “Plant response rating, Bromegrass, Downy” value [9, 13] was 10 and the “Plant response rating, Bromegrass, Downy” value [9, 14] was 10. The “Plant response rating, Bromegrass, Downy” value [9, 15] was 15, the “Plant response rating, Bromegrass, Downy” value [9, 16] was 20 and the “Bromegrass, Downy plant response rating” value [9, 17] was 40. For the same compound, the “Plant response rating, Bromegrass, Downy” value [9, 18] was 0, the “Plant response rating, Bromegrass, Downy” value [9, 19] was 0 and the “Bromegrass, Downy plant response rating” value [9, 20] was 0. The “Plant response rating, Lambsquarters” value [10, 13] was 100, the “Plant response rating, Lambsquarters” value [10, 14] was 80 and the “Plant response rating, Lambsquarters” value [10, 15] was 90. For the same compound, the “Plant response rating, Lambsquarters” value [10, 16] was 90, the “Lambsquarters plant response rating” value [10, 17] was 98 and the “Plant response rating, Lambsquarters” value [10, 18] was 98. The “Plant response rating, Lambsquarters” value [10, 19] was 100, the “Lambsquarters plant response rating” value [10, 20] was 100 and the “Plant response rating, Cupgrass, Woolly” value [11, 13] was 85. For the same compound, the “Plant response rating, Cupgrass, Woolly” value [11, 14] was 40, the “Plant response rating, Cupgrass, Woolly” value [11, 15] was 40 and the “Plant response rating, Cupgrass, Woolly” value [11, 16] was 85. For the same compound, the “Cupgrass, Woolly plant response rating” value [11, 17] was 85, the “Plant response rating, Cupgrass, Woolly” value [11, 18] was 0 and the “Plant response rating, Cupgrass, Woolly” value [11, 19] was 5. For the same compound, the “Cupgrass, Woolly plant response rating” value [11, 20] was 50, the “Plant response rating, Morningglory” value [12, 13] was 100 and the “Plant response rating, Morningglory” value [12, 14] was 50. The “Plant response rating, Morningglory” value [12, 15] was 50, the “Plant response rating, Morningglory” value [12, 16] was 75 and the “Morningglory plant response rating” value [12, 17] was 75. For the same compound, the “Plant response rating, Morningglory” value [12, 18] was 100, the “Plant response rating, Morningglory” value [12, 19] was 100 and the “Morningglory plant response rating” value [12, 20] was 100. For the same compound, the “Plant response rating, Corn” value (corn (Zea mays); [13]) was 0, the “Plant response rating, Corn” value (corn (Zea mays); [14]) was 35 and the “Plant response rating, Corn” value (corn (Zea mays); [15]) was 35. The “Plant response rating, Corn” value (corn (Zea mays); [16]) was 40, the “Corn plant response rating” value (corn (Zea mays); [17]) was 50 and the “Plant response rating, Corn” value (corn (Zea mays); [18]) was 0. The “Plant response rating, Corn” value (corn (Zea mays); [19]) was 0 and the “Corn plant response rating” value (corn (Zea mays); [20]) was 0.
